The values below come from PubChem BioAssay (NCI).

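Method: 48-hour compound exposure of cells in 96-well plates, five concentrations, linear interpolation of endpoints. TGI marks complete inhibition of growth.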

Experiment in all cases: NCI-60 cell line screen, 48 h
The subject of test [1] is A549 NSCLC.
The subject of test [2] is BT-549 breast.
Test [3] concerns CAKI-1 renal.
For test [4], the system named is EKVX NSCLC.
Test [5] has as its system HL-60(TB) leukemia.
For test [6], the system named is MDA-N.
Test [7] relates to MOLT-4 leukemia.
The test system of test [8] is NCI-H226 lung.
Test [9] has as its system NCI-H23 lung.
For test [10], the system named is NCI/ADR-RES ovarian.
Test [11] has as its system OVCAR-4 ovarian.
The subject of test [12] is SF-268 CNS.
The test system of test [13] is SF-295 CNS.
The subject of test [14] is SNB-75 CNS.
Test [15] deals with T-47D breast.
Test [16] deals with UACC-62 melanoma.
For test [17], the system named is A498 renal.
The subject of test [18] is HT29 colon.
Test [19] has as its system SR leukemia.

As to `COC(=O)C1=C(OC)C(=P2(c3ccccc3)CC(c3ccccc3)=C2c2ccccc2)C(C(=O)OC)=C1C(=O)OC` (stereo not given), the TGI in [1] is more than 100 µM; in test [2], more than 100 µM; in [3] it was more than 93.6 µM; in test [4] it was more than 100 µM; in [5], 3.22 µM; in test [6], more than 100 µM. Besides, the TGI in test [7] was 13.8 µM; in [8] it was more than 100 µM; in test [9], more than 100 µM; in test [10] it was more than 100 µM; in test [11] it was more than 100 µM; in test [12], more than 100 µM. In addition, the TGI in test [13] is more than 100 µM; in test [14], more than 100 µM; in [15], more than 51.5 µM; in test [16], more than 100 µM.

On to `Cc1nn(C(=O)Cc2ccccc2)c2c1C(c1ccc(/C=C/c3ccccc3)cc1)SC(N)=N2` (stereo not given), for which the TGI in test [17], in test [1], in test [2], in test [3], in test [4] and in test [5] was more than 100 µM in each case. For the same compound, the TGI in test [18], in test [6], in test [7], in [8], in [9] and in test [12] was more than 100 µM in each case. For the same compound, the TGI in test [13], in test [14], in test [15] and in test [16] was more than 100 µM throughout.

For `O=c1oc2ccccc2c(-c2ccc(O)cc2)c1Oc1ccccc1`, the TGI is 23.5 µM in [17]; more than 66.9 µM in test [1]; more than 75.7 µM in test [3]; 49.9 µM in test [4]; more than 100 µM in test [5]; more than 100 µM in [18]. The TGI was 58.5 µM in [6]; more than 100 µM in test [7]; more than 75.7 µM in [8]; 18.7 µM in test [9]; more than 100 µM in [10]; more than 56.7 µM in test [11]. Besides, the TGI is 25.6 µM in [12]; 53.6 µM in [13]; more than 79.3 µM in test [14]; more than 100 µM in test [19]; more than 100 µM in test [15]; 18.6 µM in [16].

`O[C@@H]1[C@H](OC2c3ccccc3-c3ccccc32)[C@H](OCc2ccccc2)[C@@H]2OC[C@H]1O2`: the TGI in test [17], in test [1], in test [2], in test [3], in [4] and in test [5] was more than 100 µM throughout. Further, the TGI in test [18], in test [6], in test [7], in test [8], in test [9] and in test [10] was more than 100 µM throughout. Also, the TGI in test [11], in test [12], in [13], in test [15] and in [16] was more than 100 µM throughout.

As for `CCN(CC)/[N+]([O-])=N/OS(=O)(=O)N(C)C`, the TGI in test [17], in test [1], in test [3], in [4], in [5] and in test [18] was more than 100 µM in each case. Further, the TGI in test [6], in test [7], in test [8], in test [9], in test [10] and in [11] was more than 100 µM in each case. In addition, the TGI in test [12], in test [13], in test [14], in test [19], in test [15] and in test [16] was more than 100 µM each time.

Turning to `C[C@H]1CCC/C=C/[C@@H]2C[C@H](OC(=O)CN(C)C)C[C@H]2[C@H](O)/C=C/C(=O)O1`, the TGI in [17] is more than 32.3 µM; in test [1], more than 100 µM; in test [2] it was more than 71 µM; in test [3] it was more than 44.9 µM; in test [4], 22.2 µM; in test [5], 6.2 µM. Besides, the TGI in test [18] was 1.07 µM; in test [6], more than 100 µM; in [7] it was 2.79 µM; in test [8], 0.133 µM; in [9], 0.909 µM; in test [10] it was 0.326 µM. Besides, the TGI was 9.64 µM in test [11]; more than 100 µM in test [12]; more than 100 µM in test [13]; 99.7 µM in test [14]; 3.49 µM in test [19]; 22.1 µM in [16].

As to `CCOC(=O)c1nc2ccc(C(F)(F)F)cc2nc1Oc1ccc(OC)cc1`, the TGI in test [17], in [1], in [2], in test [3], in test [4] and in test [18] was more than 100 µM each time. Besides, the TGI in test [6], in [7], in test [8], in [10], in test [11] and in [12] was more than 100 µM each time. In addition, the TGI in test [13], in [14], in test [15] and in test [16] was more than 100 µM in each case.

On to `c1ccc(C(NC2=NCCO2)C2CC2)cc1` (stereo not given), for which the TGI in test [17], in test [1], in test [4], in [18], in [6] and in test [7] was more than 100 µM each time. Also, the TGI in test [8], in test [9], in test [10], in test [11], in test [12] and in [13] was more than 100 µM in each case. Further, the TGI in test [14], in test [19], in [15] and in [16] was more than 100 µM throughout.
